In brackets after ≈: the same amount, converted by molar mass. Where a name gives a salt, the structure may show the parent alone.
Columns and labels:
[1] = system: in vitro grown Mycobacteria (M. tuberculosis); experiment: QUM: Quantification of in vitro grown Mycobacteria (in vitro growth fluorescence assay); format: cell-based; conditions: Mycobacterium tuberculosis; MIC, 80% bacterial growth inhibition; in vitro growth; read-out: QUM
In short: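 Mycobacterium tuberculosis grown in vitro was quantified by fluorescence across compound dose responses. MIC is defined as the minimum concentration producing 80% growth inhibition.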

Compound | melting point [°C] | MIC [1] [µM]
CCc1nc2cc(Cl)ccn2c1C(=O)NCc1ccc(N2CCN(c3ccc(F)cc3)CC2)cc1 (as salt: hydrochloride) [Compound 177, 7-Chloro-2-ethyl-N-(4-(4-(4-fluorophenyl)piperazin-1-yl)benzyl)imidazo[1,2-a]pyridine-3-carboxamide trihydrochloride] | 204.4 to 206.9 | 
CCc1nc2ccc(Cl)cn2c1C(=O)NCc1ccc(N2CCC(C(N)=O)CC2)cc1 [Compound 343, N-(4-(4-Carbamoylpiperidin-1-yl)benzyl)-6-chloro-2-ethylimidazo[1,2-a]pyridine-3-carboxamide] | 257.5 | < 1
CCc1nc2c(F)cccn2c1C(=O)NCc1ccc(Oc2ccc(OC(F)(F)F)cc2)cc1 [Compound 257, 2-Ethyl-8-fluoro-N-(4-(4-(trifluoromethoxy)phenoxy)benzyl)imidazo[1,2-a]pyridine-3-carboxamide] | 105.6 | < 1
CCc1nc2ccc(Cl)cn2c1C(=O)NCc1ccc(N2CCN3CCCC3C2)cc1 (centres unmarked) [Compound 266, 6-Chloro-2-ethyl-N-(4-(hexahydropyrrolo[1,2-a]pyrazin-2(1H)-yl)benzyl)imidazo[1,2-a]pyridine-3-carboxamide] | 163 | > 20
CCc1nc2ccc(Cl)cn2c1C(=O)NCc1ccc(N2CCC(F)(F)CC2)cc1 [Compound 277, 6-chloro-N-(4-(4,4-difluoropiperidin-1-yl)benzyl)-2-ethylimidazo[1,2-a]pyridine-3-carboxamide] | 194.2 | 1 to 20 (≈ 0.433 to 8.66 µg/mL)
CCc1nc2ccc(Cl)cn2c1C(=O)NCc1ccc(N2CCC(O)(c3ccc(F)cc3)CC2)cc1 [Compound 341, 6-Chloro-2-ethyl-N-(4-(4-(4-fluorophenyl)-4-hydroxypiperidin-1-yl)benzyl)imidazo[1,2-a]pyridine-3-carboxamide] | 173.5 | < 1
CCNC(=O)c1c(CC)nc2ccc(Cl)cn12 [Compound 246, 6-Chloro-N,2-diethylimidazo[1,2-a]pyridine-3-carboxamide] | 176.7 | > 20
CCc1nc2cc(C(F)(F)F)ccn2c1C(=O)NCc1ccc(N2CCOCC2)cc1 [Compound 322, 2-Ethyl-N-(4-morpholinobenzyl)-7-(trifluoromethyl)imidazo[1,2-a]pyridine-3-carboxamide] | 174.1 | 1 to 20 (≈ 0.432 to 8.65 µg/mL)
CCc1nc2ccccn2c1C(=O)NCc1ccc(OCc2ccc(OC(F)(F)F)cc2)cc1 [Compound 260, 2-Ethyl-N-(4-(4-(trifluoromethoxy)benzyloxy)benzyl)imidazo[1,2-a]pyridine-3-carboxamide] | 138.7 | < 1
CCc1nc2cc(Cl)ccn2c1C(=O)NCc1ccc(N2CCC3CCCCC3C2)cc1 (centres unmarked) [Compound 268, 7-Chloro-2-ethyl-N-(4-(octahydroisoquinolin-2(1H)-yl)benzyl)imidazo[1,2-a]pyridine-3-carboxamide] | 174.2 | < 1
CCc1nc2cc(Cl)ccn2c1C(=O)NCc1ccc(N2CCC(C(F)(F)F)CC2)cc1 [Compound 276, 7-Chloro-2-ethyl-N-(4-(4-(trifluoromethyl)piperidin-1-yl)benzyl)imidazo[1,2-a]pyridine-3-carboxamide] | 209.4 | > 20
CCc1nc2c(OC(F)F)cccn2c1C(=O)NCc1ccc(N2CCN(c3ccc(F)cc3)CC2)cc1 [Compound 304, 8-(Difluoromethoxy)-2-ethyl-N-(4-(4-(4-fluorophenyl)piperazin-1-yl)benzyl)imidazo[1,2-a]pyridine-3-carboxamide] | 186.3 | < 1
CCc1nc2cc(Cl)ccn2c1C(=O)NCc1ccc(N2CCC(c3ccccc3)CC2)cc1 [Compound 283, 7-Chloro-2-ethyl-N-(4-(4-phenylpiperidin-1-yl)benzyl)imidazo[1,2-a]pyridine-3-carboxamide] | 164.5 | < 1
CCc1nc2ccc(Cl)cn2c1C(=O)NCc1ccc(N2CCC(C(F)(F)F)CC2)cc1 [Compound 275, 6-Chloro-2-ethyl-N-(4-(4-(trifluoromethyl)piperidin-1-yl)benzyl)imidazo[1,2-a]pyridine-3-carboxamide] | 197.9 | 1 to 20 (≈ 0.465 to 9.3 µg/mL)
CCc1nc2cc(Cl)ccn2c1C(=O)NCc1ccc(N2CCC(c3ccc(Cl)cc3)CC2)cc1 [Compound 338, 7-Chloro-N-(4-(4-(4-chlorophenyl)piperidin-1-yl)benzyl)-2-ethylimidazo[1,2-a]pyridine-3-carboxamide] | 177 | < 1
CCc1nc2ccc(Cl)cn2c1C(=O)NCc1ccc(N2CCC(c3ccccc3)CC2)cc1 [Compound 284, 6-Chloro-2-ethyl-N-(4-(4-phenylpiperidin-1-yl)benzyl)imidazo[1,2-a]pyridine-3-carboxamide] | 138.2 | < 1
CCc1nc2ccc(F)cn2c1C(=O)NCc1ccc(Oc2ccc(OC(F)(F)F)cc2)cc1 [Compound 253, 2-Ethyl-6-fluoro-N-(4-(4-(trifluoromethoxy)phenoxy)benzyl)imidazo[1,2-a]pyridine-3-carboxamide] | 133.4 | < 1

Compound | melting point [°C] | MIC [1] [µM]
CCc1nc2c(C(F)(F)F)cccn2c1C(=O)NCc1ccc(N2CCOCC2)cc1 [Compound 323, 2-Ethyl-N-(4-morpholinobenzyl)-8-(trifluoromethyl)imidazo[1,2-a]pyridine-3-carboxamide] | 200.6 | 1 to 20 (≈ 0.432 to 8.65 µg/mL)
CCc1nc2ccc(Cl)cn2c1C(=O)NCc1ccc(N2CCC(CO)CC2)cc1 [Compound 279, 6-Chloro-2-ethyl-N-(4-(4-(hydroxymethyl)piperidin-1-yl)benzyl)imidazo[1,2-a]pyridine-3-carboxamide] | 161.1 | > 20
CCc1nc2ccc(Cl)cn2c1-c1nc(Cc2ccc(Oc3ccc(F)cc3)cc2)no1 [Compound 245, 5-(6-Chloro-2-ethylimidazo[1,2-a]pyridin-3-yl)-3-(4-(4-fluorophenoxy)benzyl)-1,2,4-oxadiazole] | 129.9 | 1 to 20 (≈ 0.449 to 8.98 µg/mL)
CCc1nc2cc(Cl)ccn2c1C(=O)NCc1ccc(N2CCC(C(N)=O)CC2)cc1 [Compound 344, N-(4-(4-Carbamoylpiperidin-1-yl)benzyl)-7-chloro-2-ethylimidazo[1,2-a]pyridine-3-carboxamide] | 244 | 1 to 20 (≈ 0.44 to 8.8 µg/mL)
CCc1nc2ccc(Cl)cn2c1C(=O)NCc1ccc(N2CCC(COc3ccc(OC(F)(F)F)cc3)CC2)cc1 [Compound 298, 6-chloro-2-ethyl-N-(4-(4-((4-(trifluoromethoxy)phenoxy)methyl)piperidin-1-yl)benzyl)imidazo[1,2-a]pyridine-3-carboxamide] | 183.6 | < 1
CCc1nc2cc(Cl)ccn2c1C(=O)NCc1ccc(N2CCN3CCCC3C2)cc1 (centres unmarked) [Compound 265, 7-Chloro-2-ethyl-N-(4-(hexahydropyrrolo[1,2-a]pyrazin-2(1H)-yl)benzyl)imidazo[1,2-a]pyridine-3-carboxamide] | 159.1 | > 20
CCc1nc2ccccn2c1C(=O)NCc1ccc(N2CCC(c3ccc(OC(F)(F)F)cc3)CC2)cc1 [Compound 288, 2-Ethyl-N-(4-(4-(4-(trifluoromethoxy)phenyl)piperidin-1-yl)benzyl)imidazo[1,2-a]pyridine-3-carboxamide] | 146 | < 1
CCc1nc2cc(Cl)ccn2c1C(=O)NCc1ccc2oc(C3CCCCC3)nc2c1 [Compound 340, 7-Chloro-N-((2-cyclohexylbenzo[d]oxazol-5-yl)methyl)-2-ethylimidazo[1,2-a]pyridine-3-carboxamide] | 163 | < 1
CCc1nc2ccc(Cl)cn2c1C(=O)NCC(C)C [Compound 247, 6-Chloro-2-ethyl-N-isobutylimidazo[1,2-a]pyridine-3-carboxamide] | 162.2 | > 20
CCc1nc2cc(Cl)ccn2c1C(=O)NCc1ccc(N2CCC(F)(F)CC2)cc1 [Compound 278, 7-Chloro-N-(4-(4,4-difluoropiperidin-1-yl)benzyl)-2-ethylimidazo[1,2-a]pyridine-3-carboxamide] | 166.3 | 1 to 20 (≈ 0.433 to 8.66 µg/mL)
CCc1nc2ccc(OC)cn2c1C(=O)NCc1ccc(N2CCN(c3ccc(F)cc3)CC2)cc1 [Compound 112, 2-Ethyl-N-(4-(4-(4-fluorophenyl)piperazin-1-yl)benzyl)-6-methoxyimidazo[1,2-a]pyridine-3-carboxamide] | 173.8 | < 1
CCc1nc2c(OC(F)F)cccn2c1C(=O)NCc1ccc(N2CCOCC2)cc1 [Compound 319, 8-(Difluoromethoxy)-2-ethyl-N-(4-morpholinobenzyl)imidazo[1,2-a]pyridine-3-carboxamide] | 163 | 1 to 20 (≈ 0.43 to 8.61 µg/mL)
CCc1nc2ccc(Br)cn2c1C(=O)NCc1ccc(Oc2ccc(OC(F)(F)F)cc2)cc1 [Compound 254, 6-Bromo-2-ethyl-N-(4-(4-(trifluoromethoxy)phenoxy)benzyl)imidazo[1,2-a]pyridine-3-carboxamide] | 152.9 | < 1
CCc1nc2cc(Cl)ccn2c1C(=O)NCc1ccc(N2CCC(C)(C)CC2)cc1 [Compound 274] | 121.3 | < 1
CCc1nc2cc(Cl)ccn2c1C(=O)NCc1cccc(-c2ccc(OC(F)(F)F)cc2)c1 [Compound 248, 7-Chloro-2-ethyl-N-((4′-(trifluoromethoxy)biphenyl-3-yl)methyl)imidazo[1,2-a]pyridine-3-carboxamide] | 192.6 | < 1
CCc1nc2ccc(Br)cn2c1C(=O)NCc1ccc(OCc2ccc(OC(F)(F)F)cc2)cc1 [Compound 259, 6-Bromo-2-ethyl-N-(4-(4-(trifluoromethoxy)benzyloxy)benzyl)imidazo[1,2-a]pyridine-3-carboxamide] | 189.7 | < 1
